After the bases stand the sugars from the 5' end (letter, count) and the backbone: PS all phosphorothioate, else s phosphorothioate and o phosphodiester by linkage. Methylation of C is not given here. e = 2'-O-(2-methoxyethyl) (MOE); k = constrained ethyl (cEt); d = 2'-deoxy (DNA)

We go through 25 sequences from the OligoGym collection.

The target in this series is APOL1. To be noted: ASO.

On to “CGCAATGCTGACTTGG (sugars k3 d4 k3 e1 d5, PS)”, for which the target mRNA inhibition reads like this: (A431, 0.0156 µM) 34%; (A431, 0.04 µM) 50%; (A431, 0.0625 µM) 61%; (A431, 0.25 µM) 83%; (A431, 1 µM) 92%; (A431, 2 µM) 94%.

For TATTGGTTCAAAAGCA (sugars k4 d9 k3, PS), the target mRNA inhibition runs as follows: (A431, 0.0625 µM) 29%; (A431, 0.25 µM) 67%; (A431, 1 µM) 86%.

CATTTGGAGATCTGGC (sugars k4 d9 k3, PS): the target mRNA inhibition reads like this: (A431, 0.0625 µM) 57%; (A431, 0.25 µM) 74%; (A431, 1 µM) 92%.

In the case of “CTTTATACCAGTGTCT (sugars kkddddekekeddddd, PS)”, the target mRNA inhibition by setting is: (A431, 0.0156 µM) 29%; (A431, 0.04 µM) 50%; (A431, 0.0625 µM) 60%; (A431, 0.25 µM) 82%; (A431, 1 µM) 95%; (A431, 2 µM) 98%.

“TGTTCTAACTCTTGGG (sugars k3 d4 k3 e1 d5, PS)” returned a target mRNA inhibition (A431, 2 µM) of 89%.

For the setting “A431, 2 µM”, “ACACATCATTGGGTTA (sugars kkkddddkekekdddd, PS)” displayed a target mRNA inhibition of 32%.

Consider “AGTATTGCCAGCTAAG (sugars kkkddddkekekdddd, PS)”, for which, for the setting “A431, 2 µM”, the target mRNA inhibition was found to be 66%.

For “GGTTATGAAATTATTG (sugars k2 d4 e3 k2 d5, PS)”, for the setting “A431, 2 µM”, the target mRNA inhibition came out at 61%.

As to CAGTACAGAGCAGGAT (sugars k4 d9 k3, PS), the target mRNA inhibition reads like this: (A431, 0.0625 µM) 59%; (A431, 0.25 µM) 82%; (A431, 1 µM) 94%.

As to TACCGGGTAAGAGCGA (sugars k4 d9 k3, PS), the target mRNA inhibition is 32% (A431, 0.0625 µM); 64% (A431, 0.25 µM); 78% (A431, 1 µM).

Turning to “GTTCAAAAGCAGCATT (sugars kkkddddkdkdkdddd, PS)”, the target mRNA inhibition (A431, 2 µM) turned out to be 23%.

The sequence “TTATGAAATTATTGGT (sugars kkddddkekekddddd, PS)” came in with a target mRNA inhibition (A431, 2 µM) of 82%.

For “ACTTTATACCAGTGTC (sugars k2 d4 e3 k2 d5, PS)”, where the note is “A431, 2 µM”, the target mRNA inhibition was 91%.

In turn, “AAGATTGGCTCTGGCT (sugars kkddddkekekkdddd, PS)” showed a target mRNA inhibition (A431, 2 µM) of 2%.

As to CAGCATTGAGTACAAC (sugars k3 d10 k3, PS), the target mRNA inhibition (A431, 0.0625 µM) is 38%; the target mRNA inhibition (A431, 0.25 µM) was 58%; the target mRNA inhibition (A431, 1 µM) amounted to 84%.

For the sequence “CTAATTTTCTGACTGT (sugars k2 d4 e3 k2 d5, PS)”, the target mRNA inhibition (A431, 2 µM) worked out at 83%.

“CGTCAATATATTCTTT (sugars kkkddddkekekdddd, PS)”: the target mRNA inhibition worked out at 25% (A431, 0.0156 µM); 55% (A431, 0.0625 µM); 84% (A431, 0.25 µM); 93% (A431, 1 µM); 94% (A431, 2 µM).

For the setting “A431, 2 µM”, “CATTCAGAATTTCCAC (sugars kkddddkekekddddd, PS)” gave a target mRNA inhibition of 76%.

With “GTTATATTTGATCCTC (sugars k3 d4 k3 e1 d5, PS)”, the target mRNA inhibition (A431, 2 µM) worked out at 98%.

As for “CTGAAGATTGGCTCTG (sugars k2 d4 e3 k2 d5, PS)”, the target mRNA inhibition (A431, 2 µM) came out at 54%.

Where the note is “A431, 2 µM”, “AGTATTGTTTTTGTGG (sugars kkddddkekekkdddd, PS)” showed a target mRNA inhibition of 66%.

For the sequence TGTGATGTGGGACTTG (sugars k4 d9 k3, PS), the target mRNA inhibition was 32% (A431, 0.0625 µM); 70% (A431, 0.25 µM); 84% (A431, 1 µM).

Regarding AGCATCAAAAACCTGG (sugars k4 d9 k3, PS), the target mRNA inhibition runs as follows: (A431, 0.0625 µM) 66%; (A431, 0.25 µM) 81%; (A431, 1 µM) 89%.

Regarding “TGTATTTCTTGATGTG (sugars k3 d4 k3 e1 d5, PS)”, the target mRNA inhibition (A431, 2 µM) was found to be 87%.

For “TCAGATGGGTACTTCT (sugars kkdddddkekeddddd, PS)”, the target mRNA inhibition (A431, 2 µM) turned out to be 89%.
